Tested on: DU-145 multicell spheroids with HUVEC/MSC, viability
Test: Anticancer human tumor DU-145 cell line growth inhibition [IpAb];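 also: spheroids exposed to agents for seven days before measurement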;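 as to viability, T/C: percent of DMSO vehicle control viability so 100% = untreated level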
Conditions: for IC50: curve of first compound; for viability, T/C: stronger effect = lower value
Description: Combinatorial screen of targeted agents with ipatasertib and abemaciclib in multi-cell type tumor spheroids
A high-throughput screen of multi-cell type tumor spheroids was designed to identify active combinations of targeted small molecules and ipatasertib or abemaciclib. Complex spheroids include a stromal component modeled by human endothelial cells (HUVEC) and fibroblasts modeled by human mesenchymal stem cells (MSCs). The concentration ranges selected for each drug and investigational agent were based upon clinically achievable concentrations if the clinical Cmax of the agent was known.
Compounds. The drugs and investigational agents: ipatasertib (NSC767898), abemaciclib(NSC768073), selumetinib (NSC741078), trametinib (758246), adavosertib (NSC754352), everolimus (NSC733504), sapanisertib (NSC764658), vemurafenib (NSC761431), venetoclax (NSC766270), copanlisib (NSC809693), apelisib (NSC765974), palbociblib (NSC758247), vemurafenib (NSC761431), dabrafenib (NSC764134), ravoxertinib (NSC781343), BMS-387032 (NSC767048), sotorasib (NSC818433), talazoparib (NSC767125) and afursertib (NSC778305), were obtained from the National Cancer Institute (NCI) Developmental Therapeutics Program Chemical Repository. The FDA-approved anticancer drug set is available from the NCI Developmental Therapeutics Program. […] The stock solutions were prepared in dimethyl sulfoxide (DMSO, Sigma-Aldrich, St. Louis, MO, cat. D2650) at 800-fold the tested concentration and stored at -70 degrees C prior to their use. All drugs and investigational agents were tested over a range starting from a high concentration at or near the clinical Cmax and decreasing in half-log increments. If the clinical Cmax for an agent had not been determined, the highest concentration tested was 10 microM.
NCI60 Cell Culture. NCI60 cell lines were obtained from the NCI Developmental Therapeutics Program Tumor Repository. For each lot of cells, the Repository performed Applied Biosystems AmpFLSTR Identifiler testing with PCR amplification to confirm consistency with the published Identifier STR profile for each cell line. Cells were kept in continuous culture for no more than 20 passages. The optimal seeding densities for each of the cell lines at each time point assessed were determined prior to performing the concentration response studies. Briefly, the NCI60 human tumor lines were grown as monolayers in RPMI 1640 medium supplemented with 10% FBS and 2 mmol/L L-glutamine.
An additional 9 lines were from the NCI60 cell line panel including MDA-MB-231 breast carcinoma, MDA-MB-468 breast carcinoma, MCF7 breast carcinoma, Hs578T breast carcinoma, MALME-3M melanoma, SK-MEL-2 melanoma, SK-OV-3 ovarian carcinoma, DU-145 prostate carcinoma, PC-3 prostate carcinoma, all cell lines along with major genetic alterations are listed on Table 2. Pooled donor human umbilical vein endothelial cells (HUVEC, Lonza, cat. CC-2519) and human mesenchymal stem cells (hMSC, Lonza, cat. PT-2501) were purchased from Lonza (Walkersville, MD).
PDMR cell lines were grown in complete medium (DC medium): Dulbecco's modified Eagle's medium (DMEM)/F12 supplemented with 5% fetal bovine serum (FBS), 2 mM L-glutamine, 100 U/mL penicillin and 100 µg/ml streptomycin, 0.4 µg/ml hydrocortisone, 10 ng/ml epidermal growth factor (EGF) recombinant human protein, 24 µg/mL adenine, and 0.1 mg/mL primocin. During culture from frozen stock vials, PDMR cells were cultured in the same medium containing 10 µM Y-27632 (see Table 3). The PDCs were cultured in complete DMEM/F12 media without 10 microM Y-27632 dihydrochloride for at least two passages prior to the screen. The pooled donor HUVEC and hMSC were cultured in endothelial cell growth medium 2 (PromoCell, Heidelberg, Germany, cat. C-22011) and mesenchymal stem cell growth medium 2 (PromoCell, cat. C-28009), respectively. For all experiments, HUVEC and hMSC were used at passages </=5.
[…]

[1] = second compound 0.1 µM, first compound 0.0316 µM
[2] = second compound 0.1 µM, first compound 0.1 µM
[3] = second compound 0.1 µM, first compound 0.316 µM
[4] = second compound 0.1 µM, first compound 1 µM
[5] = second compound 0.316 µM, first compound 0.0316 µM
[6] = second compound 0.316 µM, first compound 0.1 µM
[7] = second compound 0.316 µM, first compound 0.316 µM
[8] = second compound 0.316 µM, first compound 1 µM
[9] = second compound 1 µM, first compound 0.0316 µM
[10] = second compound 1 µM, first compound 0.1 µM
[11] = second compound 1 µM, first compound 0.316 µM
[12] = second compound 1 µM, first compound 1 µM
[13] = second compound 3.16 µM, first compound 0.0316 µM
[14] = second compound 3.16 µM, first compound 0.1 µM
[15] = second compound 3.16 µM, first compound 0.316 µM
[16] = second compound 3.16 µM, first compound 1 µM
[17] = second compound 10 µM, first compound 0.0316 µM
[18] = second compound 10 µM, first compound 0.1 µM
[19] = second compound 10 µM, first compound 0.316 µM
[20] = second compound 10 µM, first compound 1 µM

For `CC(=O)c1c(C)c2cnc(Nc3ccc(N4CCNCC4)cn3)nc2n(C2CCCC2)c1=O` + CC(C)NCC(C(=O)N1CCN(c2ncnc3c2C(C)CC3O)CC1)c1ccc(Cl)cc1, which IC50 (second compound 0.1 µM) is on record?
Its IC50 is greater than 300 nM.

What about the IC50 (second compound 0.316 µM) of the same compound?
The IC50 was greater than 300 nM.

What about the IC50 (second compound 1 µM) of the same compound?
Its IC50 is less than 0.949 nM.

What about the IC50 (second compound 3.16 µM) of the same compound?
The IC50 was less than 0.949 nM.

What about the IC50 (second compound 10 µM) of the same compound?
The IC50 was less than 0.949 nM.

What about the viability, T/C (second compound 0.1 µM, first compound 0.000949 µM) of the same compound?
The viability, T/C was 85.3%.

What about the viability, T/C (second compound 0.1 µM, first compound 0.003 µM) of the same compound?
Its viability, T/C is 79.7%.

And the viability, T/C (second compound 0.1 µM, first compound 0.00949 µM)?
The viability, T/C was 83.4%.

And the viability, T/C (second compound 0.1 µM, first compound 0.03 µM)?
Its viability, T/C is 89.2%.

What about the viability, T/C (second compound 0.1 µM, first compound 0.0949 µM) of the same compound?
Its viability, T/C is 81.8%.

And the viability, T/C (second compound 0.1 µM, first compound 0.3 µM)?
The viability, T/C was 83.7%.

And the viability, T/C (second compound 0.316 µM, first compound 0.000949 µM)?
Its viability, T/C is 53%.

What about the viability, T/C (second compound 0.316 µM, first compound 0.003 µM) of the same compound?
The viability, T/C was 52.1%.

And the viability, T/C (second compound 0.316 µM, first compound 0.00949 µM)?
The viability, T/C was 52.2%.

What about the viability, T/C (second compound 0.316 µM, first compound 0.03 µM) of the same compound?
The viability, T/C was 48.1%.

And the viability, T/C (second compound 0.316 µM, first compound 0.0949 µM)?
The viability, T/C was 48.8%.

What about the viability, T/C (second compound 0.316 µM, first compound 0.3 µM) of the same compound?
Its viability, T/C is 54.7%.

And the viability, T/C (second compound 1 µM, first compound 0.000949 µM)?
Its viability, T/C is 29.3%.

What about the viability, T/C (second compound 1 µM, first compound 0.003 µM) of the same compound?
Its viability, T/C is 30.7%.

And the viability, T/C (second compound 1 µM, first compound 0.00949 µM)?
The viability, T/C was 28.9%.

And the viability, T/C (second compound 1 µM, first compound 0.03 µM)?
The viability, T/C was 28.7%.

What about the viability, T/C (second compound 1 µM, first compound 0.0949 µM) of the same compound?
Its viability, T/C is 28.6%.

What about the viability, T/C (second compound 1 µM, first compound 0.3 µM) of the same compound?
The viability, T/C was 27.8%.

What about the viability, T/C (second compound 3.16 µM, first compound 0.000949 µM) of the same compound?
The viability, T/C was 20.3%.

And the viability, T/C (second compound 3.16 µM, first compound 0.003 µM)?
Its viability, T/C is 19.7%.

What about the viability, T/C (second compound 3.16 µM, first compound 0.00949 µM) of the same compound?
Its viability, T/C is 19.2%.

And the viability, T/C (second compound 3.16 µM, first compound 0.03 µM)?
Its viability, T/C is 19.5%.

And the viability, T/C (second compound 3.16 µM, first compound 0.0949 µM)?
Its viability, T/C is 20.3%.

And the viability, T/C (second compound 3.16 µM, first compound 0.3 µM)?
Its viability, T/C is 19.9%.

And the viability, T/C (second compound 10 µM, first compound 0.000949 µM)?
The viability, T/C was 16.8%.

And the viability, T/C (second compound 10 µM, first compound 0.003 µM)?
The viability, T/C was 15.5%.

What about the viability, T/C (second compound 10 µM, first compound 0.00949 µM) of the same compound?
Its viability, T/C is 15.5%.

And the viability, T/C (second compound 10 µM, first compound 0.03 µM)?
The viability, T/C was 17.2%.

What about the viability, T/C (second compound 10 µM, first compound 0.0949 µM) of the same compound?
The viability, T/C was 15.6%.

And the viability, T/C (second compound 10 µM, first compound 0.3 µM)?
Its viability, T/C is 16.1%.

Which results are given for `COc1c(OCCCN2CCOCC2)ccc2c3n(c(=NC(=O)c4cnc(N)nc4)nc12)CCN3` + CC(C)NCC(C(=O)N1CCN(c2ncnc3c2C(C)CC3O)CC1)c1ccc(Cl)cc1?
IC50 (second compound 0.1 µM): 6.79 nM; IC50 (second compound 0.316 µM): < 3.16 nM; IC50 (second compound 1 µM): < 3.16 nM; IC50 (second compound 3.16 µM): < 3.16 nM; IC50 (second compound 10 µM): < 3.16 nM; viability, T/C (second compound 0.1 µM, first compound 0.00316 µM): 65.3%; viability, T/C (second compound 0.1 µM, first compound 0.01 µM): 41.2%; viability, T/C [1]: 27.6%; viability, T/C [2]: 12.7%; viability, T/C [3]: 9.75%; viability, T/C [4]: 10.5%; viability, T/C (second compound 0.316 µM, first compound 0.00316 µM): 41.5%; viability, T/C (second compound 0.316 µM, first compound 0.01 µM): 28.2%; viability, T/C [5]: 18.8%; viability, T/C [6]: 11.6%; viability, T/C [7]: 9.1%; viability, T/C [8]: 11.2%; viability, T/C (second compound 1 µM, first compound 0.00316 µM): 25.4%; viability, T/C (second compound 1 µM, first compound 0.01 µM): 22%; viability, T/C [9]: 14.8%; viability, T/C [10]: 10%; viability, T/C [11]: 8.83%; viability, T/C [12]: 10.2%; viability, T/C (second compound 3.16 µM, first compound 0.00316 µM): 18.7%; viability, T/C (second compound 3.16 µM, first compound 0.01 µM): 14.6%; viability, T/C [13]: 12.1%; viability, T/C [14]: 9.46%; viability, T/C [15]: 8.26%; viability, T/C [16]: 9.07%; viability, T/C (second compound 10 µM, first compound 0.00316 µM): 14.6%; viability, T/C (second compound 10 µM, first compound 0.01 µM): 12.5%; viability, T/C [17]: 10.5%; viability, T/C [18]: 8.52%; viability, T/C [19]: 7.9%; viability, T/C [20]: 9.09%

Which results are given for `Cc1nc(NC(=O)N2CCCC2C(N)=O)sc1-c1ccnc(C(C)(C)C(F)(F)F)c1` (stereo not given) + CC(C)NCC(C(=O)N1CCN(c2ncnc3c2C(C)CC3O)CC1)c1ccc(Cl)cc1?
IC50 (second compound 0.1 µM): 94.7 nM; IC50 (second compound 0.316 µM): < 31.6 nM; IC50 (second compound 1 µM): < 31.6 nM; IC50 (second compound 3.16 µM): < 31.6 nM; IC50 (second compound 10 µM): < 31.6 nM; viability, T/C [1]: 65.7%; viability, T/C [2]: 49.2%; viability, T/C [3]: 32.1%; viability, T/C [4]: 27.9%; viability, T/C (second compound 0.1 µM, first compound 3.16 µM): 18.1%; viability, T/C (second compound 0.1 µM, first compound 10 µM): 7.81%; viability, T/C [5]: 40%; viability, T/C [6]: 35%; viability, T/C [7]: 26.2%; viability, T/C [8]: 22.4%; viability, T/C (second compound 0.316 µM, first compound 3.16 µM): 14.7%; viability, T/C (second compound 0.316 µM, first compound 10 µM): 6.56%; viability, T/C [9]: 27.1%; viability, T/C [10]: 24.3%; viability, T/C [11]: 20.5%; viability, T/C [12]: 17.1%; viability, T/C (second compound 1 µM, first compound 3.16 µM): 12.4%; viability, T/C (second compound 1 µM, first compound 10 µM): 5.68%; viability, T/C [13]: 18.3%; viability, T/C [14]: 18.5%; viability, T/C [15]: 14.1%; viability, T/C [16]: 14%; viability, T/C (second compound 3.16 µM, first compound 3.16 µM): 8.48%; viability, T/C (second compound 3.16 µM, first compound 10 µM): 5.66%; viability, T/C [17]: 14.9%; viability, T/C [18]: 13.5%; viability, T/C [19]: 11.8%; viability, T/C [20]: 9.73%; viability, T/C (second compound 10 µM, first compound 3.16 µM): 8.28%; viability, T/C (second compound 10 µM, first compound 10 µM): 5.36%

From PubChem BioAssay AID2060335 (Molecular Pharmacology Branch, DTP, NCI, 2025)
